Laboratory results reported in PubChem BioAssay AID1985 (Southern Research Specialized Biocontainment Screening …, 2009).
Where “and” joins values, the source holds several entries; their conditions need not be identical. Equal values may be shown once.

System: S. Typhi PhoP-promoter GFP reporter, fluorescence, 4 h
Assay: modified counter assay using GFP fluorescence, PhoP regulon inhibitor project, dose response (AID 1985)

In order of falling IC50:
1. Cn1c(-c2ccc3c(c2)OCO3)cnc1NCc1ccc(Cl)cc1  140 µM
2. Cc1ccc2c(c1)C1CN(C)CCC1N2Sc1ccccc1[N+](=O)[O-] (configuration not stated)  135 µM
3. CNCc1c(OCc2ccccc2F)ccc2ccccc12  127 µM
4. CCCCOc1ccc(CN=C(N)N)cc1Cl  103 µM
5. Cc1cc(C)n(-c2nc(NCCN(C)C)c3c4c(sc3n2)CCCC4)n1  99.4 µM
6. O[C@@H](c1cc(C(F)(F)F)nc2c(C(F)(F)F)cccc12)[C@H]1CCCCN1  90.6 µM
7. O=C1Nc2ccccc2C1=Nc1ccc(S(=O)(=O)Nc2nccs2)cc1  90.1 µM
8. C/C(=N\NC(=O)c1ccccc1O)c1cccs1  89.3 µM
9. O=C(N/N=C/c1cc(Br)ccc1O)c1ccccc1Cl  82.8 µM
10. Oc1ccc(C[C@@H]2CNCCN2CCC23CC4CC(CC(C4)C2)C3)cc1  78.9 µM
11. O=C(Cn1nc(CNc2ccc(Br)cc2)[n+]2c1CCCCC2)c1ccc([N+](=O)[O-])cc1  78.8 µM
12. O=c1c2c([nH]c3ccccc13)CCCCC2  78.4 µM
13. O=C(c1ccccc1)c1c2c(cc3sc4ccccc4[n+]13)-c1cccc3cccc-2c13  77.3 µM
14. Cc1ccc(C(OCC(O)CNCc2ccc(F)cc2)c2ccccc2)cc1 (configuration not stated)  74.4 µM
15. Cc1cc(C)n(/N=C/c2cc([N+](=O)[O-])ccc2O)c(=O)c1  70.5 µM
16. Cc1cc(=O)[nH]c(-n2nc(C)cc2C)n1  67.5 µM
17. O=C(O)c1cccc(N2C(=O)CSC2=S)c1  62.1 µM
18. Clc1cccc(/C=N\Nc2nccs2)c1  58.9 µM
19. CSc1ccc2c(c1)C(N1CCN(C)CC1)Cc1ccccc1S2 (configuration not stated)  55.6 µM
20. Cc1ccc(OCC(=O)N/N=C\c2c(C)[nH]n(-c3ccccc3)c2=O)c([N+](=O)[O-])c1  53.6 µM
21. CCn1cc(C(=O)O)c(=O)c2cc3c(cc21)OCO3  52.1 µM
22. O=C(/C=C/c1ccccc1)c1cc(Br)ccc(=O)c1O  51.1 µM
23. COc1ccc(NC(=O)COC(=O)c2ccc([N+](=O)[O-])o2)cc1Cl  46.8 µM
24. COc1ccc(/C=N/Nc2cc(C)nc3ccc(Br)cc23)cc1  46.2 µM
25. CCOC(=O)N/N=C(/C)c1ccc([N+](=O)[O-])o1  45.8 µM
26. Fc1ccccc1CCNCc1ccccc1  45.7 µM
27. O=C(Nc1nnc(C2COc3ccccc3O2)o1)c1ccc(F)cc1 (configuration not stated)  40.9 µM
28. O=C(Nc1nnc(-c2cccs2)o1)c1cccc(Oc2ccccc2)c1  39.9 µM
29. c1cc2c(cc1C1CCCCC1)c1c3n2CCCNC3CCC1 (configuration not stated)  39.9 µM
30. O=C(NC(=S)NNC(=O)c1cccs1)c1ccco1  39.7 µM
31. CC1(CC(=O)N/N=C/c2cc([N+](=O)[O-])c(O)cc2O)OCCO1  38.4 µM
32. Fc1ccc(Nc2nnc(C(F)(F)F)s2)cc1Cl  38 µM
33. C#CCOCCOCCOCCNc1nc(N2CCN(C(=O)CCCCCCCCCCNC(=O)Cn3cc(CCCCCN)nn3)CC2)nc(N2CCN(C(=O)CCCCCCCCCCNC(=O)[C@H]([C@@H](C)CC)n3cc(CCCCN=C(N)N)nn3)CC2)n1  36.8 µM
34. CN(C)CCCNC(=S)NCC(c1ccc(Cl)cc1Cl)c1c[nH]c2ccccc12 (configuration not stated)  36.5 µM
35. O=C(N/N=C/c1c[nH]c2ccccc12)c1cc2ccccc2o1  33.5 µM
36. C#CCOCCOCCOCCNc1nc(N2CCN(C(=O)CCCCCCCCCCNC(=O)[C@H]([C@@H](C)CC)n3cc(CCCCN=C(N)N)nn3)CC2)nc(N2CCN(C(=O)CCCCCCCCCCNC(=O)[C@H](CO)n3cc(CCCCCN)nn3)CC2)n1  32.8 µM
37. O=C1CN(/N=C/c2ccc([N+](=O)[O-])o2)C(=O)N1  32.2 µM
38. Cc1cc(C(C)(C)CC(C)(C)C)ccc1OCCOCC[N+](C)(C)Cc1ccccc1  31.6 µM
39. O=C(CCN1CCOCC1)N/N=C/c1cc(Br)cc(Br)c1O  30.7 µM
40. O=C(C[n+]1ccc(-c2ccccc2)cc1)Nc1ccc([N+](=O)[O-])cc1  27.3 µM
41. CCn1cc(C(=O)O)c(=O)c2cc(F)c(N3CCN(C(=S)NC(=O)c4cccc(F)c4)CC3)cc21  27.2 µM
42. CCc1ccc2c(c1)C1(NN=C(c3ccc(C)cc3)S1)C(=O)N2 (configuration not stated)  24.4 µM
43. CC(C(=O)NC1C=CS(=O)(=O)C1)N1C(=O)/C(=C/c2ccc(Cl)cc2)SC1=S (configuration not stated)  22.2 µM
44. O=C(/C=C/c1ccc(F)cc1)NC(=S)NNC(=O)c1cnccn1  20.4 µM
45. O=C(Cc1cccs1)N/N=C\c1ccc([N+](=O)[O-])s1  20.1 µM
46. CCCCCCCCCCCCCCCC[n+]1cccc(C(=O)N(CC)CC)c1  20.1 µM
47. CCCCCCCCCCCCCCCCn1cc[n+](C)c1  19.1 µM
48. O=C(N/N=C/c1cc([N+](=O)[O-])ccc1O)C1CC1  14.9 µM
49. C[C@H]1O[C@@H](n2cc(F)c(=O)[nH]c2=O)[C@H](O)[C@@H]1O  13.2 µM
50. C1=C(CCNCc2ccccc2)CCCC1  8.38 µM
51. CCn1cc(C(=O)O)c(=O)c2cc(F)c(N3CCN(C(=S)NC(=O)c4cccc(C)c4)CC3)cc21  8.37 µM
52. O=C(NC(CO)Cc1ccc([N+](=O)[O-])cc1)C(Cl)Cl (configuration not stated)  4.59 µM
53. CC1CCc2c(N3CCC(O)CC3)c(F)cc3c(=O)c(C(=O)O)cn1c23 (configuration not stated)  4.44 µM
54. CN(C)[C@@H]1C(=O)C(C(N)=O)=C(O)[C@@]2(O)C(=O)C3=C(O)c4c(O)cccc4[C@@](C)(O)C3[C@H](O)C12 (some centres not stated)  2.99 µM
55. C[C@H]1c2cccc(O)c2C(O)=C2C(=O)[C@]3(O)C(O)=C(C(N)=O)C(=O)[C@@H](N(C)C)[C@@H]3[C@@H](O)[C@@H]21  1.97 µM
56. CCn1cc(C(=O)O)c(=O)c2cc(F)c(N3CCN(C)CC3)cc21  0.427 µM

For `CN(C)CCCN1c2ccccc2Sc2ccc(Cl)cc21`, the IC50 was 88.1 µM and 81.4 µM.
